Read-outs that look alike come from different tables or passages of the source. Where a SMILES comes first, the peptide text is derived from it. The star is where a group is joined. Cbz = O=C(OCc1ccccc1)*
Experiments:
[1] = test system: TSCs; format: cell-based, mouse; details: 7 days
Procedure: (FIG. 10A) TSCs were incubated for 7 days±FGF4 at 20%, 2%, or 0.5% O2 with the mitochondrial activator DCA. TSCs were cultured for 7 days at 20% O2,±FGF4, and with mitochondrial inhibitors antimycin A or cyanide (FIG. 10B). The cells were then lysed and assayed by qPCR for the relative levels of 5 terminal differentiation markers PL1, PL2, Plf, CtsQ, and synTa. The experiment was repeated 3 times and bars show the average±s.e.m., (a) indicates no significant difference and (b) indicates a significant difference (p<0.05) between TSCs with FGF4 removed without or with mitochondrial agonist or antagonist. Where changes in markers are significant (b), the increase or decrease due to mitochondrial agonist or antagonist is shown above the histogram bar.
RNA isolation and quantitative reverse transcription-PCR (qRT-PCR). […] Briefly, DNase-treated total RNA was isolated following cDNA preparation using QuantiTect Reverse Transcription Kit iScript (Qiagen). Assays were performed using Fast SYBR Green on a System 7500 instrument (Applied Biosystems), and a one-step program for 40 cycles. Each experiment was carried out in triplicate, and all three genes for TSC multipotency were normalized against 18S rRNA.
To test the necessity and sufficiency of mitochondrial function for TSC differentiation, 2 mitochondrial inhibitors and an agonist were used. The mitochondrial activator dichloroacetate (DCA) was tested at 0.5%-20% O2 (FIG. 10A).
Cyanide and antimycin A inhibit COX (part of mitochondrial complex IV) and complex III, respectively, and were used to inhibit the ETC and thus the generation of Δψm for 7 days of culture at optimal differentiation conditions (FIG. 10B).

[2] = test system: mitochondrial membrane potential (ΔΨm)
Procedure: Mitochondrial staining by MitoTracker dye. TSC were cultured at different O2 levels at least 24 hr stained with DAPI (D21490, Invitrogen) alone or with either MitoTracker Red FM (Invitrogen), TMRM (T668), or JC-1 (T3168, Invitrogen) alone or with the uncoupler FCCP (Sigma), and analyzed under a DM-IRE2 fluorescence microscope (Leica, Germany) using Simple PCI image acquisition software (Hamamatsu, Sewickley, PA).
In more detail, TSC were cultured on coverslips in 12-well plates at different O2 levels either with or without FGF4, for 48 hr. Before experiments were conducted at low O2 tension, TSC were adapted in a hypoxia chamber (Billups-Rothenberg, CA) at the given O2 level described above for at least 24 hr. Nuclear dye 2.5 μg/ml DAPI (D21490, Invitrogen) was applied as a counterstain 1 hr before TSC were incubated alone with either 50 nM MitoTracker Red FM (M22425m, Invitrogen) for 30 min, 20 nM TMRM (T668) for 30 min, or 3.25 nM JC-1 (T3168, Invitrogen) for 45 min, or in combination with the uncoupler FCCP (1 nM, Sigma, C2920). After staining, the TSC were washed with PBS 2 times and immediately analyzed under a DM-IRE2 fluorescence microscope (Leica, Germany) using Simple PCI image acquisition software (Hamamatsu, Sewickley, PA).
The roles of FGF4 and O2 on Δψm associated with ATP production was determined. […]

[3] = target: T1, AKT (Mus musculus, UniProt P31750); assay: phospho-AKT western blot in mESCs under 200 mM sorbitol; format: cell-based; details: mESCs, 4 hr, 200 mM sorbitol
T1 construct: endogenous in cells; host or cells: mESC-D3 (ATCC)
Procedure: (§1) FIG. 14. […] Blots are representative of triplicate experiments. Phospho-proteins and their loading controls are grouped between black lines.
(§2) FIG. 15. […] Blots are representative of triplicate experiments.
(§3) Hyperosmotic activation of signaling enzymes. […] Zhong, 2010; Xie, 2011. […] To determine the kinetics of activation of these five kinases in the described system, mESCs were treated with 200 mM sorbitol for 1 hr. Expression levels of the activated (i.e., phosphorylated) enzymes were assayed by western blot analysis (FIG. 14), including phospho-p38MAPK, phospho-JNK, phospho-MEK1/2, and phospho-AKT (the downstream effector of PI3K signaling).
(§4) Efficacy of enzyme inhibitors.

[4] = test system: Oct4, Nanog, and Rex1 protein in mESCs; assay: Proteasome inhibitor effects on Oct4, Nanog, and Rex1 during sorbitol stimulation of mESCs; format: cell-based, mouse; details: 4 hr; for stress-induced loss of Oct4, Nanog, and Rex1: 200 mM sorbitol
Procedure: FIG. 17. MG132 proteasome inhibitor effects on Oct4, Nanog, and Rex1 during sorbitol stimulation of mESCs. mESCs were treated for 4 hr with 0 or 200 mM sorbitol±10 μM MG132 and then lysed.
FIGS. 18A-18D. Lactacystin effects on Oct4, Nanog, Rex1 during sorbitol stimulation of mESCs. mESCs were treated for 4 hr±200 mM sorbitol±25, 50 μM lactacystin, then photographed before lysing. […] ANOVA+Student-Newman-Keuls post hoc tests, Oct4 p=0.000; Nanog p=0.035; Rex1 p=0.11. FIG. 18D) mESCs were stressed with or without lactacystin and micrographs were taken at 100×. Scale bar=50 μm.
Hyperosmotic-stress-induced loss of potency TFs due to proteasomal degradation. To determine the mechanism of TF protein loss during stress, mESCs were treated with one of two proteasome inhibitors, MG132 (FIG. 17) and lactacystin (FIGS. 18A-18D). […] Oct4 loss was reversed by 75%, Nanog by 93%, and Rex1 by 310% in 4 hr of proteasome inhibition by MG132.

[5] = test system: Oct4, Nanog, and Rex1 expression in mESC; assay: TF expression levels during hyperosmotic stress +/- enzyme inhibition in mESC monolayer culture (western blot)
Procedure: Histograms show relative expression of each protein when normalized to amido black expression. Error flags represent standard error of the mean (n≥3). “*” denotes significant difference from unstressed mESCs. “a” indicates significant difference from stress-only time point. ANOVA and Student-Newman-Keuls post hoc tests (P<0.05).
(FIG. 20A) mESCs were incubated±200 mM sorbitol for 0-24 hr and ±p38 inhibitor SB202190 (10 μM). mESCs were lysed, and proteins were fractionated using SDS-PAGE, blotted, and probed for Oct4 or Nanog. (FIG. 20B) Phase micrographs of mESCs following 24 hr of culture in the presence/absence of stress and p38MAPK inhibitor, SB202190. Scale bars=50 μm. (FIG. 20C) mESCs were incubated±200 mM sorbitol for 0-24 hr±either U0126 or LY294002 (25 μM). mESCs were lysed and proteins were fractionated using SDS-PAGE, blotted, and probed for Oct4 or Nanog. Histograms show relative expression of each protein when normalized to amido black expression. Error flags represent standard error of the mean (n≥3). “*” denotes significant difference from unstressed mESCs. “a” indicates significant difference from stress-only time point. ANOVA and Student-Newman-Keuls post hoc tests (P<0.05).
(FIG. 21A) mESCs were incubated±200 mM sorbitol for 0-24 hr±(A) p38MAPK inhibitor SB202190 (10 μM) or PI3K inhibitor LY294002 (25 μM); or JNK inhibitor L-JNKi-1 (2 μM). mESCs were lysed, and proteins were fractionated using SDS-PAGE, blotted, and probed for Rex1. Histograms show relative expression of each protein when normalized to amido black expression. Error flags represent standard error of the mean (n≥3). “*” denotes significant difference from unstressed mESCs. “a” indicates significant difference from stress-only time point. ANOVA and Student-Newman-Keuls post hoc tests (P<0.05). (FIG. 21B) To test the reversibility of the Rex1 loss during sorbitol stress, mESCs were incubated−200 mM sorbitol for 0-4 hr and then sorbitol was removed from some dishes for the remaining 20 hr (lane 5). Histogram is representative of two independent experiments.
Cell culture and stimulation. mESC-D3 cells (ATCC, Manassas, VA) were cultured in the absence of feeder cells in Dulbecco's modified Eagle's medium (Gibco, Grand Island, NY) supplemented with 15% mESC-screened fetal bovine serum (HyClone, Logan, UT), 2 mM L-glutamine, 1 mM sodium pyruvate, 1 mM nonessential amino acids, 0.1 mM 2-mercaptoethanol (Sigma), and 1,000 U/mL murine leukemia inhibitory factor (LIF; Millipore, Temecula, CA) on 0.1% gelatin-coated dishes at 37° C. in humidified air with 5% CO2. […] Osmolality was determined by freezing point depression using Advanced Instruments Wide Range Osmometer 3W2 (Advanced Instruments, Norwood, MA).
Enzyme inhibition. Enzyme inhibitors were chosen according to the specificity reported in the kinase inhibitor literature. […] Inhibitor concentrations were determined following dose response experiments for each inhibitor based on the range of concentrations determined from the mESC and kinase inhibitor literature.

[6] = test system: Oct4, Nanog, and Rex1 expression in mESC; assay: Inhibitor only effects on Oct4, Nanog, and Rex1 expression (western blot); format: cell-based, mouse
[7] = test system: ERK1/2; assay: phospho-ERK1/2 western blot in mESCs under 200 mM sorbitol
Procedure: Cells were lysed and proteins were fractionated using SDS-PAGE, blotted, and probed for phospho-p38 (Thr180/Tyr182), phospho-JNK (Thr183/Tyr185), phospho-ERK1/2 (Thr202/Tyr204), or phospho-AKT (Ser473). Blots are representative of triplicate experiments.
Western blot analysis. Sodium dodecyl sulfate-polyacrylamide gel electrophoresis and western immunoblot analysis of mESC lysates were performed as previously described. […] Cells were harvested with cold lysis buffer (Cell Signaling) and protein was quantified by BCA assay (Pierce, Rockford, IL). Ten to twenty micrograms of aliquots were fractionated on 10% polyacrylamide precast gels (Bio-Rad, Hercules, CA), transferred to nitrocellulose membranes (Amersham Biosciences, Aylesbury, UK), probed overnight with primary antibodies, and developed as previously described. […] Protein bands were visualized using the ECL Advance Western Blotting Detection Kit (GE Healthcare, Waukesha, WI), blot was scanned to obtain an electronic image, and intensity of protein bands was quantified using Image J analysis software (rsbweb.nih.gov) and normalized to amido black staining. […] Data are expressed as the change in expression relative to no treatment at time zero.

[8] = target: p38MAPK (Mus musculus, UniProt P47811); assay: phospho-p38 western blot in mESCs under 200 mM sorbitol; format: cell-based
Procedure: as §1, §2, §3, §4

[9] = test system: Trophoblast stem cells (TSCs); assay: qPCR of lineage and multipotency markers in TSCs with or without SAPK inhibitors at 20, 2 or 0.5% O2; format: cell-based, mouse; details: TSCs + FGF4, 0.5-20% O2
Procedure: FIGS. 1A-1C. SAPK mediates decreased Gcm1 and Tpbpa and increased Hand1 at all O2 levels. There are greater effects as O2 deviates from the stemness optimum of 2% O2. Trophoblast stem cells (TSCs) were passaged and cultured at 20, 2, or 0.5% O2 overnight. FGF4 was replenished the next day at time zero, and SAPK inhibitor SP600125 (10 μm or 50 μM) was co-incubated with TSCs for 2 days at the indicated O2 levels±SP600125. Markers were quantitated using qPCR. (FIG. 1B) is a graph derived from data in (FIG. 1A), where the highest inhibited group was subtracted from the uninhibited group at each O2 level (the subtracted difference is shown as a color inset in the histogram bars of highest expression of each marker). […]
FIG. 2. […] RNA was isolated and quantitated using qPCR.
Cell lines and culture conditions. […] Quantitative removal of gas phase O2 requires 30 min in anaerobic bags, i.e., there was only a minimal period when 20% O2 was ambient to media that was pre-equilibrated under 0, 0.5, or 2% O2. […]
RNA isolation and quantitative reverse transcription-PCR (qRT-PCR). […] Briefly, DNase-treated total RNA was isolated following cDNA preparation using QuantiTect Reverse Transcription Kit […] (Qiagen). […]

[10] = 4 hr, 200 mM sorbitol + PD98059
[11] = 20% O2, FGF4 removed, sublethal concentration

T1 sequence (P31750 whole entry): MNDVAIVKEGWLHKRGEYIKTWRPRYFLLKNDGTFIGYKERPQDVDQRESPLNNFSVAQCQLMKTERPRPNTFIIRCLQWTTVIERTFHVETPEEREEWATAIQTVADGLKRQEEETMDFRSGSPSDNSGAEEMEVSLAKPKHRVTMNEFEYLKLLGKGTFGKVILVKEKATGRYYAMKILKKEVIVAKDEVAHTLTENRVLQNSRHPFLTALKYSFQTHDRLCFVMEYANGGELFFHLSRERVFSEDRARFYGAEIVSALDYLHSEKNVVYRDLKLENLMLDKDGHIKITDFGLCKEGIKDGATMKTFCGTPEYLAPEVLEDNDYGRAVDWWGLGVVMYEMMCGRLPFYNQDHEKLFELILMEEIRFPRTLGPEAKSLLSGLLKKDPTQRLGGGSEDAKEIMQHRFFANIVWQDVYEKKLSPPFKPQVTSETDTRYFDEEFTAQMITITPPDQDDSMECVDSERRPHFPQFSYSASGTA
Chain of p38MAPK (P47811 whole entry): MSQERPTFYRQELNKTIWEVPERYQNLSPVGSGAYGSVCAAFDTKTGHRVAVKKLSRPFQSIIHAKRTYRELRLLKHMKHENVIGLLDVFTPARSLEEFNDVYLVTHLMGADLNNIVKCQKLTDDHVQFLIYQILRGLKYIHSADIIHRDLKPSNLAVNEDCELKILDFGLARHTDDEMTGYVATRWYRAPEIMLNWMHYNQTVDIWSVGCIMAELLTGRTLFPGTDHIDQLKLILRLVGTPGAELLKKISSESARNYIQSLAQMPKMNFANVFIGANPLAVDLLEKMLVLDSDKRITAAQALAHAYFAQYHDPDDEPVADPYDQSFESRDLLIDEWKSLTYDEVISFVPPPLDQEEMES

In the case of `O=C(O)C(Cl)Cl` [DCA, dichloroacetate], the “PL2 mRNA increase” value ([1]; 2% O2) is reported as 2 fold and the “synTa mRNA increase” value ([1]; 2% O2) is reported as 2 fold.
In the case of `N#CC(C#N)=NNc1ccc(OC(F)(F)F)cc1` [FCCP, Carbonyl cyanide 4-(trifluoromethoxy)phenylhydrazone], the JC1 stain fluorescence [2] is reported as “no fluorescence” and the “effect on Δψm” value [2] is reported as “completely depolarizes”.
For `O=c1cc(N2CCOCC2)oc2c(-c3ccccc3)cccc12` [LY294002], the “inhibition of AKT activation (average)” value [3] was 88%.
In the case of `CC(C)C[C@@H](C=O)NC(=O)[C@H](CC(C)C)NC(=O)[C@H](CC(C)C)NC(=O)OCc1ccccc1` [MG132] (Cbz-Leu-Leu-Leu-aldehyde), the “reversal of stress-induced Nanog loss” value ([4]; 10 μM MG132, 200 mM sorbitol) is reported as 93%, the “reversal of stress-induced Oct4 loss” value ([4]; 10 μM MG132, 200 mM sorbitol) is reported as 75% and the “reversal of stress-induced Rex1 loss” value ([4]; 10 μM MG132, 200 mM sorbitol) is reported as 310%. For the same compound, the “stress-induced loss of Oct4, Nanog, and Rex1” value [4] was “prevented”.
With `COc1cccc(-c2cc(=O)c3ccccc3o2)c1N` [PD98059] the “Nanog expression relative to unstressed level” value [5, 10] was 2.5 times, the “expression of Oct4 and Rex1” value [5, 10] was “remained at the unstressed baseline” and the Oct4 recovery ([5]; 24 hr, 200 mM sorbitol + inhibitor) was “did not prevent”. The “Nanog protein expression, inhibitor only” value ([6]; 24 hr inhibitor only, vs 24 hr no inhibitor, AKTi 10, LY294002 10, L-JNKi-1 2, SB202190 10, U0126 40, PD98059 20 μM) was “*1.54 ± 0.10%” and the “inhibition of ERK1/2 activation (average)” value ([7]; mESCs, 4 hr, 200 mM sorbitol) was 30%.
With `Oc1ccc(-c2nc(-c3ccncc3)c(-c3ccc(F)cc3)[nH]2)cc1` [SB202190] the Nanog expression ([5]; 24 hr ongoing stress, 200 mM sorbitol + SB202190) was 10%, the Oct4 expression ([5]; 24 hr, 200 mM sorbitol + SB202190, did not recover from 4-h nadir) was 50 % of unstressed levels and the “inhibition of p38MAPK activation (average)” value [8] was 60%.
`Oc1c2ccccc2c2c3c(cccc13)N=N2` [SP600125] was tested, and the “multipotency factors Cdx2, Id2, Errβ mRNA” value [9] was “no effect”.
`N#CC(=C(/N)Sc1ccccc1N)/C(C#N)=C(\N)Sc1ccccc1N` [U0126] was tested, and the “Oct4 or Nanog loss during stress” value [5] was “did not prevent”, the Oct4 recovery [5] was “prevented” and the Rex1 expression [5] was “remained at unstressed levels”. For the same compound, the “Nanog protein expression, inhibitor only” value [6] was 0.94 ± 0.15%, the “Oct4 protein expression, inhibitor only” value [6] was 1.16 ± 0.31% and the “Rex1 protein expression, inhibitor only” value [6] was 0.72 ± 0.06%. For the same compound, the “inhibition of ERK1/2 activation (average)” value [7] was 87%.
With `CC(=O)N[C@@H](CSC(=O)[C@]1([C@@H](O)C(C)C)NC(=O)[C@H](C)[C@@H]1O)C(=O)O` [lactacystin] the “stress-induced loss of Oct4, Nanog, and Rex1” value [4] was “prevented”.
antimycin A was tested, and the “Ctsq mRNA inhibited” value [1, 11] was 81%, the “PL2 mRNA inhibited” value [1, 11] was 98% and the “synTa mRNA inhibited” value [1, 11] was 42%.

Reference: patent US20250154611A1, “SYSTEMS AND METHODS TO DETECT STEM CELL STRESS AND USES THEREOF” (Wayne State University, priority 2014, published 2025)
